# Experimental data reported in paper PMC5590070, “Anti-Inflammatory, Antioxidant, Antibiotic, and Cytotoxic Activities of Tanacetum vulgare L. Essential Oil and Its Constituents” (Medicines, 2017).
# Tested on: NO production in murine macrophage RAW 264.7 cells
# Experiment: Inhibition of NO production in LPS-stimulated RAW 264.7 macrophages (Griess reaction)
# Format: cell-based
# Conditions: Mus musculus, RAW264.7; inhibition of NO production, RAW 264.7, 100 ng·mL^−1 LPS, 24 h; read-out: Anti-Inflammation IC50
# Procedure: We evaluated the inhibition NO production by T. vulgare essential oil and compounds as described by Legault et al.. Control L-NAME was used as positive control. Murine macrophage RAW 264.7 cells were incubated with essential oil or dissolved compounds in DMSO and then stimulated with 100 ng·mL^−1 LPS and incubated at 37 °C. After 24 h, we collected the cell-free supernatants and immediately determined the NO concentration using the Griess reaction. We read the absorbance at 540 nm using an automated Varioskan Ascent plate reader (Labsystems, Milford, MA, USA), and quantified the presence of nitrite by comparing with a NaNO2 standard curve.
row,IC50 [µg/mL],Compound
1,> 200,C=C1C2CCC(C2)C1(C)C (centres unmarked) [Camphene]
2,> 200,CC(=O)OC1CC2CCC1(C)C2(C)C (centres unmarked) [Bornyl acetate]
3,> 200,Cc1ccc(C(C)C)cc1 [p-Cymene]

row,Compound,IC50 [µg/mL]
1,CC1=CCC(=C(C)C)CC1 [Terpinolene],> 200

# Same assay, conditions: inhibition of NO production, RAW 264.7, 100 ng·mL^−1 LPS, 24 h
row,Compound,Anti-Inflammation IC50 [µg/mL]
1,C=C1CC[C@H]2O[C@]2(C)CC[C@@H]2[C@@H]1CC2(C)C [Caryophyllene oxide],183 ± 15
2,C=C(C)[C@H]1CC=C(C)CC1 [Limonene],>200
3,C/C1=C\CC/C(C)=C/CC(C)(C)/C=C/C1 [α-Humulene],15 ± 2

# Tested on: human skin fibroblasts WS1
# Experiment: Cell-based antioxidant DCFH-DA assay (tert-butylhydroperoxide-induced DCFH oxidation)
# Conditions: Homo sapiens; inhibition of DCFH oxidation induced by tert-butylhydroperoxide, WS1 cells
# Procedure: Antioxidant activity was evaluated using the DCFH-DA assay as described by Girard-Lalancette et al.. To assess antioxidant activity, we incubated the human skin fibroblasts WS1 for 1 h with a growing concentration of essential oil or dissolved compounds in DMSO. We then added 100 µL of 200 µM tert-butylhydroperoxide and immediately measured fluorescence as well as again after 90 min later. Measurements were performed on an automated plate reader (Fluoroskan Ascent FL, Labsystems, Milford, MA, USA) using an excitation wavelength of 485 nm and an emission wavelength of 530 nm.
row,Compound,IC50 [µg/mL]
1,C=C1C2CCC(C2)C1(C)C (centres unmarked) [Camphene],> 200
2,"O=c1c(O)c(-c2ccc(O)c(O)c2)oc2cc(O)cc(O)c12 [Quercetin, reference compound]",0.043
3,CC(=O)OC1CC2CCC1(C)C2(C)C (centres unmarked) [Bornyl acetate],> 200
4,Cc1ccc(C(C)C)cc1 [p-Cymene],> 200

# Same assay, conditions: inhibition of DCFH oxidation induced by tert-butylhydroperoxide, WS1 cells
row,Compound,Antioxidant IC50 [µg/mL]
1,C=C1CC[C@H]2O[C@]2(C)CC[C@@H]2[C@@H]1CC2(C)C [Caryophyllene oxide],6.2 ± 0.5
2,C/C1=C\CC/C(C)=C/CC(C)(C)/C=C/C1 [α-Humulene],>200

# Tested on: Escherichia coli (ATCC 25922)
# Experiment: Antibacterial hydrophobic assay (resazurin)
# Format: cell-based
# Conditions: E. coli, 50% inhibition of bacterial growth
# Description: (§1) We tested the antibacterial activities of T. vulgare essential oil and compounds against gram-negative Escherichia coli (ATCC bacteria 25922) and gram-positive Staphylococcus aureus (ATCC bacteria 25923) using the antibacterial hydrophobic assay as described by Côté et al.. This new method was developed and used in this work as classical methods including disc diffusion and microdilution assays are sometimes inefficient for testing a matrix or compounds of a hydrophobic nature. Briefly, after microorganisms passed 16–18 h at 37 °C in a nutrient broth base (Difco), we transferred 20 µL methanol containing growing concentrations of essential oil and compounds (3.1 to 200 µg·mL^−1) onto nutrient agar of 96-well plates. We then added bacterial strains having a concentration of 5 × 10^3 colony forming units (CFU) per mL of nutrient broth. […] The blank consisted of culture medium only and was subtracted from all subsequent measurements of every other well. The 96-well plates were then incubated at 37 °C for 5 h to foster bacterial growth. We then added 100 µL of resazurin sodium salt solution having a concentration of 50 µg·mL^−1 (Sigma R-2127, St-Louis, MO, USA) to each well.
row,Compound,Antibacterial IC50 E. coli [µg/mL]
1,C=C1CC[C@H]2O[C@]2(C)CC[C@@H]2[C@@H]1CC2(C)C [Caryophyllene oxide],97 ± 2
2,C=C(C)[C@H]1CC=C(C)CC1 [Limonene],>200
3,C/C1=C\CC/C(C)=C/CC(C)(C)/C=C/C1 [α-Humulene],>200

# Same assay, conditions: Escherichia coli, ATCC25922, E. coli, 50% inhibition of bacterial growth
row,IC50 [µg/mL],Compound
1,> 200,C=C1C2CCC(C2)C1(C)C (centres unmarked) [Camphene]
2,> 200,CC(=O)OC1CC2CCC1(C)C2(C)C (centres unmarked) [Bornyl acetate]
3,> 200,Cc1ccc(C(C)C)cc1 [p-Cymene]

# Same assay, conditions: Escherichia coli, ATCC25922; E. coli, antibiotic positive control
row,MIC90 [µg/mL],Compound
1,0.9,"O=C(N[C@H](CO)[C@H](O)c1ccc([N+](=O)[O-])cc1)C(Cl)Cl [Chloramphenicol, reference compound]"

# Same assay, conditions: Escherichia coli, ATCC25922; read-out: Antibacterial IC50 E. coli
row,Compound,IC50 [µg/mL]
1,CC1=CCC(=C(C)C)CC1 [Terpinolene],> 200

# Tested on: Staphylococcus aureus (ATCC 25923)
# Experiment: Antibacterial hydrophobic assay (resazurin)
# Format: cell-based
# Conditions: S. aureus, 50% inhibition of bacterial growth
# Description: as §1
row,Compound,Antibacterial IC50 S. aureus [µg/mL]
1,C=C1CC[C@H]2O[C@]2(C)CC[C@@H]2[C@@H]1CC2(C)C [Caryophyllene oxide],10.4 ± 0.9
2,C=C(C)[C@H]1CC=C(C)CC1 [Limonene],>200
3,C/C1=C\CC/C(C)=C/CC(C)(C)/C=C/C1 [α-Humulene],>200

# Same assay, conditions: Staphylococcus aureus, ATCC25923, S. aureus, 50% inhibition of bacterial growth
row,IC50 [µg/mL],Compound
1,> 200,C=C1C2CCC(C2)C1(C)C (centres unmarked) [Camphene]
2,> 200,CC(=O)OC1CC2CCC1(C)C2(C)C (centres unmarked) [Bornyl acetate]
3,> 200,Cc1ccc(C(C)C)cc1 [p-Cymene]

# Same assay, conditions: Staphylococcus aureus, ATCC25923; S. aureus, antibiotic positive control
row,MIC90 [µg/mL],Compound
1,0.73,"O=C(N[C@H](CO)[C@H](O)c1ccc([N+](=O)[O-])cc1)C(Cl)Cl [Chloramphenicol, reference compound]"

# Same assay, conditions: Staphylococcus aureus, ATCC25923; read-out: Antibacterial IC50 S. aureus
row,Compound,IC50 [µg/mL]
1,CC1=CCC(=C(C)C)CC1 [Terpinolene],> 200

# Tested on: not listed separately
# Experiment: Cytotoxic assay, resazurin reduction test, 48 h
# Format: cell-based, human
# Conditions: human, A-549 lung carcinoma cells; A-549, 48 h; read-out: Cytotoxicity IC50 A549
# Procedure: (§2) We plated in 96-well microplates—each containing a 100 µL culture medium—exponentially growing cells of human skin fibroblasts WS1, human HaCaT keratinocytes, human lung carcinoma A-549, and human colon adenocarcinoma DLD-1 at a density of 5 × 10^3 cells per well (Costar, Corning Inc., Lowell, MA, USA). The cells were allowed to adhere for 16 h before treatment. We then treated cells with T. vulgare essential oil or dissolved compounds in DMSO. The final concentration of DMSO in the culture medium was 0.5% (v/v) to avoid solvent toxicity. After 48 h, we assessed the cytotoxicity using the resazurin reduction test. Fluorescence was measured on an automated Fluoroskan Ascent FL^TM plate reader (Labsystems, Milford, MA, USA) using an excitation wavelength of 530 nm and an emission wavelength of 590 nm.
row,Compound,IC50 at 48 h [µg/mL]
1,C=C1C2CCC(C2)C1(C)C (centres unmarked) [Camphene],72 ± 2
2,CC(=O)OC1CC2CCC1(C)C2(C)C (centres unmarked) [Bornyl acetate],> 200
3,Cc1ccc(C(C)C)cc1 [p-Cymene],> 200

# Same assay, conditions: human, A-549 lung carcinoma cells; A-549, cytotoxic positive control; read-out: Cytotoxicity IC50 A-549
row,Compound,IC50 at 48 h [nM]
1,"COc1cc([C@@H]2c3cc4c(cc3[C@@H](O[C@@H]3O[C@@H]5CO[C@@H](C)O[C@H]5[C@H](O)[C@H]3O)[C@H]3COC(=O)[C@H]23)OCO4)cc(OC)c1O [Etoposide, reference compound]",2300

# Same assay, conditions: human, DLD-1 colon adenocarcinoma cells; DLD-1, 48 h; read-out: Cytotoxicity IC50 DLD1
row,Compound,IC50 at 48 h [µg/mL]
1,C=C1C2CCC(C2)C1(C)C (centres unmarked) [Camphene],75 ± 5
2,CC(=O)OC1CC2CCC1(C)C2(C)C (centres unmarked) [Bornyl acetate],> 200
3,Cc1ccc(C(C)C)cc1 [p-Cymene],> 200

# Same assay, conditions: human, DLD-1 colon adenocarcinoma cells; DLD-1, cytotoxic positive control; read-out: Cytotoxicity IC50 DLD-1
row,Compound,IC50 at 48 h [nM]
1,"COc1cc([C@@H]2c3cc4c(cc3[C@@H](O[C@@H]3O[C@@H]5CO[C@@H](C)O[C@H]5[C@H](O)[C@H]3O)[C@H]3COC(=O)[C@H]23)OCO4)cc(OC)c1O [Etoposide, reference compound]",2800

# Same assay, conditions: human, WS1 skin fibroblasts; WS1, 48 h; read-out: Cytotoxicity IC50 WS1
row,Compound,IC50 at 48 h [µg/mL]
1,C=C1C2CCC(C2)C1(C)C (centres unmarked) [Camphene],49 ± 1
2,CC(=O)OC1CC2CCC1(C)C2(C)C (centres unmarked) [Bornyl acetate],> 200
3,Cc1ccc(C(C)C)cc1 [p-Cymene],> 200

# Same assay, conditions: human, WS1 skin fibroblasts; WS1, cytotoxic positive control; read-out: Cytotoxicity IC50 WS1
row,Compound,IC50 at 48 h [nM]
1,"COc1cc([C@@H]2c3cc4c(cc3[C@@H](O[C@@H]3O[C@@H]5CO[C@@H](C)O[C@H]5[C@H](O)[C@H]3O)[C@H]3COC(=O)[C@H]23)OCO4)cc(OC)c1O [Etoposide, reference compound]",19000

# Same assay, conditions: human; A-549, 48 h; read-out: Cytotoxicity IC50 A549
row,Compound,IC50 at 48 h [µg/mL]
1,CC1=CCC(=C(C)C)CC1 [Terpinolene],> 200

# Same assay, conditions: human; DLD-1, 48 h; read-out: Cytotoxicity IC50 DLD1
row,Compound,IC50 at 48 h [µg/mL]
1,CC1=CCC(=C(C)C)CC1 [Terpinolene],> 200

# Same assay, conditions: human; WS1, 48 h; read-out: Cytotoxicity IC50 WS1
row,Compound,IC50 at 48 h [µg/mL]
1,CC1=CCC(=C(C)C)CC1 [Terpinolene],> 200

# Tested on: human colon adenocarcinoma DLD-1
# Experiment: Cytotoxic assay, resazurin reduction test, 48 h
# Format: cell-based
# Conditions: DLD-1, 48 h
# Procedure: as §2
row,Compound,Cytotoxicity IC50 DLD1 [µg/mL]
1,C=C1CC[C@H]2O[C@]2(C)CC[C@@H]2[C@@H]1CC2(C)C [Caryophyllene oxide],43 ± 3
2,C=C(C)[C@H]1CC=C(C)CC1 [Limonene],31 ± 3
3,C/C1=C\CC/C(C)=C/CC(C)(C)/C=C/C1 [α-Humulene],43 ± 3

# Tested on: human lung carcinoma A-549
# Experiment: Cytotoxic assay, resazurin reduction test, 48 h
# Format: cell-based
# Conditions: A-549, 48 h
# Procedure: as §2
row,Compound,Cytotoxicity IC50 A549 [µg/mL]
1,C=C1CC[C@H]2O[C@]2(C)CC[C@@H]2[C@@H]1CC2(C)C [Caryophyllene oxide],36 ± 2
2,C=C(C)[C@H]1CC=C(C)CC1 [Limonene],71 ± 6
3,C/C1=C\CC/C(C)=C/CC(C)(C)/C=C/C1 [α-Humulene],28 ± 1

# Tested on: human skin fibroblasts WS1
# Experiment: Cytotoxic assay, resazurin reduction test, 48 h
# Format: cell-based
# Conditions: WS1, 48 h
# Procedure: as §2
row,Compound,Cytotoxicity IC50 WS1 [µg/mL]
1,C=C1CC[C@H]2O[C@]2(C)CC[C@@H]2[C@@H]1CC2(C)C [Caryophyllene oxide],50 ± 4
2,C/C1=C\CC/C(C)=C/CC(C)(C)/C=C/C1 [α-Humulene],24 ± 3

# Tested on: not listed separately
# Experiment: in vitro
# Conditions: human
# Procedure: as §2
# We assessed the cytotoxic activity of T. vulgare essential oil and its main compounds against human lung carcinoma A-549, colon adenocarcinoma DLD-1, human keratinocytes HaCaT, and healthy WS1 cell lines.
row,IC50 at 48 h [µg/mL],Compound
1,28 to 112,C=C1C2CCC(C2)C1(C)C (centres unmarked) [Camphene]
